Values after ≈ are worked out from the molar mass of the structure shown. Where two headings read alike, the source gives them in different places.

For one data set, the system named is S. aureus ATCC 29213. Nature of the data set: Minimal inhibitory concentration, microbroth dilution. Format: cell-based. The following applies: Staphylococcus aureus, ATCC29213, read-out: Minimal Inhibitory Concentration S. aureus ATCC 29213. The essentials:
(§1)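 Compound was diluted twofold in the appropriate broth. Bacterial suspension (approx. 10^5 cfu/mL) was then added in equal volume, giving a maximum test concentration of 200 μM. After aerobic overnight incubation at 37 °C, wells were inspected visually for growth.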

The next data set has as its system E. coli K12ΔtolC. Described as above. Format: cell-based. An outline of the steps: as §1
A further data set concerns S. pneumoniae DAW27. Described as above. The class given is cell-based. The following applies: Streptococcus pneumoniae, DAW27, read-out: Minimal Inhibitory Concentration S. pneumoniae DAW27. The essentials:
as §1

For the next data set, the system named is B. subtilis ATCC 23857. The description is as above. Format: cell-based. The following applies: Bacillus subtilis, ATCC23857, read-out: Minimal Inhibitory Concentration B. subtilis ATCC 23857. The essentials:
as §1

A further data set concerns E. faecails ATCC 33186. The description is as above. The class given is cell-based. The following applies: Enterococcus faecalis, ATCC33186, read-out: Minimal Inhibitory Concentration E. faecails ATCC 33186. The essentials:
as §1

Data set [1] is described as follows: Cytotoxicity assay, CellTiter-Glo cell viability. The class given is cell-based. The following applies: African green monkey. An outline of the steps: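 Vero cells seeded overnight at 37 °C in DMEM with 10% FBS, then exposed to serial dilutions of compound for 72 h. Viability read by CellTiter-Glo luminescence; IC50 from duplicates, given as the range of two independent experiments.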
On the technique in general: In ATP-based viability assays light output follows the ATP content of the culture.

The next data set concerns S. pneumoniae R6. In words: Minimal inhibitory concentration, microbroth dilution. Format: cell-based. The following applies: Streptococcus pneumoniae, R6; read-out: Minimal Inhibitory Concentration S. pneumoniae R6. An outline of the steps: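 Twofold serial dilutions in broth per CLSI M7-A7 microbroth dilution, incubated aerobically overnight at 37° C. MIC read visually as lowest concentration preventing bacterial growth.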
(In general: Dilution methods test growth across graded concentrations, often in twofold steps.)

The next data set can be described thus: in vitro. The following applies: CD-1, mouse, microsomes, pH 7.4. The protocol:
Compounds were initially prepared by dissolving them into DMSO at a final concentration of 10 mM. NADPH regenerating solutions A and B and mouse liver microsomes (CD-1) were obtained from BD Gentest (Woburn, Mass.). Ninety-six well deep well plates were obtained from MidWest Scientific Inc (Valley Park, Mo.).
Sample preparation for microsomal stability was modified from methods of Di, L., et al., Int J Pharm. 2005 Jun. 13; 297(1-2): 110-9. A set of incubation times of 0, 15, 30, 60, 120, and 240 minutes were used. Mouse liver microsomal solutions were prepared by adding 58 μL of concentrated human or mouse liver microsomes (20 mg/mL protein concentration) to 1.756 mL of 0.1 M potassium phosphate buffer (pH 7.4) and 5 μL of 0.5 M EDTA to make a 0.6381 mg/mL (protein) microsomal solution. NADPH regenerating agent contained 113 μL of NADPH A, 23 μL of NADPH B, and 315 μL of 0.1 M potassium phosphate buffer (pH 7.4). The diluted test compound solutions (2 μL) were each added directly to a 1.79 mL of liver microsomal solution. This solution was mixed and 90 μL was transferred to 6 time points plates (each in triplicate wells). For the time 0 plate, 225 μL of cold acetonitrile with internal standard ([…] warfarin) was added to each well, followed by addition of NADPH regenerating agent (22.5 μL) and no incubation. For other five time points' plate, NADPH regenerating agent (22.5 μL) was added to each well to initiate the reaction. The plates were incubated at 37° C. for the required time, followed by quenching of the reaction by adding 225 μL of cold acetonitrile with internal standard (4 μg/ml warfarin). All of the plates were sealed and mixed well at 600 rpm for 10 minutes followed by centrifugation at 4000 rpm for 20 minutes. The supernatants (120 μL) were transferred to analytical plates for analysis by LCMS. LCMS conditions were described in the materials and instrumentation section above. The metabolic stability is evaluated via the half-life from least-squares fit of the multiple time points based on first-order kinetics.

A further data set deals with S. aureus USA 300 ΔClpP. In words: Minimal inhibitory concentration, microbroth dilution. The class given is cell-based, Staphylococcus aureus. The following applies: ClpP inactivated strain. An outline of the steps:
as §1

Setting [2] is: Vero cells, 72 hours, read-out: Cytotoxicity IC50.

What is called IC50 is the point on the concentration scale where inhibition reaches its midpoint. For `C[C@@H]1C[C@H]2C(=O)OC[C@H](NC(=O)[C@H](Cc3ccccc3)NC(=O)Nc3cccc(Cl)c3)C(=O)N3CCC[C@H]3C(=O)N3CCCC[C@H]3C(=O)N[C@@H](C)C(=O)N2C1` [Compound 9, (S)-2-(3-(3-Chlorophenyl)Ureido)-N-((2R,6S,8aS,14aS,20S,23aS)-2,6-Dimethyl-5,8,14,19,23-Pentaoxooctadecahydro-1H,5H,14H,19H-Pyrido[2,1-I]Dipyrrolo[2,1-C:2′,1′-L][1]Oxa[4,7,10,13]Tetraazacyclohexadecin-20-Yl)-3-Phenylpropanamide], the MIC is 3.13 µM (≈ 2.44 µg/mL) with S. aureus ATCC 29213, 0.78 µM (≈ 0.607 µg/mL) in the data set on S. pneumoniae DAW27, 1.56 µM (≈ 1.21 µg/mL) in the data set on B. subtilis ATCC 23857 and 1.56 µM (≈ 1.21 µg/mL) with E. faecails ATCC 33186. For the same molecule, the “Minimal Inhibitory Concentration E. coli K12ΔtolC” value in the data set with E. coli K12ΔtolC stood at 25 µM. The IC50 at 72 h in data set [1] (setting [2]) was 89 ± 5 µM.
On to `C[C@@H]1C[C@H]2C(=O)OC[C@H](NC(=O)[C@H](Cc3ccccc3)NC(=O)Nc3ccc(Cl)cc3)C(=O)N3CCC[C@H]3C(=O)N3CCCC[C@H]3C(=O)N[C@@H](C)C(=O)N2C1` [Compound 3, (S)-2-(3-(4-Chlorophenyl)Ureido)-N-((2R,6S,8aS,14aS,20S,23aS)-2,6-Dimethyl-5,8,14,19,23-Pentaoxooctadecahydro-1H,5H,14H,19H-Pyrido[2,1-I]Dipyrrolo[2,1-C:2′,1′-L][1]Oxa[4,7,10,13]Tetraazacyclohexadecin-20-Yl)-3-Phenylpropanamide], for which the MIC turned out to be 1.56 µM (≈ 1.21 µg/mL) in the data set on S. aureus ATCC 29213, 0.2 µM (≈ 0.156 µg/mL) in the data set with S. pneumoniae DAW27, 0.78 µM (≈ 0.607 µg/mL) in the data set with B. subtilis ATCC 23857 and 0.2 µM (≈ 0.156 µg/mL) in the data set with E. faecails ATCC 33186. Further, in the data set on E. coli K12ΔtolC, the “Minimal Inhibitory Concentration E. coli K12ΔtolC” value turned out to be 25 µM. For the same molecule, the IC50 at 72 h in [1] (setting [2]) amounted to 63 ± 5.8 µM.
On to `C[C@@H]1C[C@H]2C(=O)OC[C@H](NC(=O)[C@H](Cc3ccccc3)NC(=O)Nc3ccc(N(C)C)cc3)C(=O)N3CCC[C@H]3C(=O)N3CCCC[C@H]3C(=O)N[C@@H](C)C(=O)N2C1` [Compound 5, (S)—N-((2R,6S,8aS,14aS,20S,23aS)-2,6-Dimethyl-5,8,14,19,23-Pentaoxooctadecahydro-1H,5H,14H,19H-Pyrido[2,1-1]Dipyrrolo[2,1-C:2′,1′-L][1]Oxa[4,7,10,13]Tetraazacyclohexadecin-20-Yl)-2-(3-(4-(Dimethylamino)Phenyl)Ureido)-3-Phenylpropanamide], for which the MIC is 6.25 µM (≈ 4.92 µg/mL) with S. aureus ATCC 29213, 0.39 µM (≈ 0.307 µg/mL) in the data set with S. pneumoniae DAW27, 0.78 µM (≈ 0.614 µg/mL) in the data set on B. subtilis ATCC 23857 and 0.78 µM (≈ 0.614 µg/mL) with E. faecails ATCC 33186. The “Minimal Inhibitory Concentration E. coli K12ΔtolC” value in the data set with E. coli K12ΔtolC was 50 µM. Further, the IC50 at 72 h in data set [1] (setting [2]) worked out at 91.3 ± 12.7 µM.
In the case of `COc1ccc(NC(=O)N[C@@H](Cc2ccccc2)C(=O)N[C@H]2COC(=O)[C@@H]3C[C@@H](C)CN3C(=O)[C@H](C)NC(=O)[C@@H]3CCCCN3C(=O)[C@@H]3CCCN3C2=O)cc1` [Compound 6, (S)—N-((2R,6S,8aS,14aS,20S,23aS)-2,6-Dimethyl-5,8,14,19,23-Pentaoxooctadecahydro-1H,5H,14H,19H-Pyrido[2,1-1]Dipyrrolo[2,1-C:2′,1′-L][1]Oxa[4,7,10,13]Tetraazacyclohexadecin-20-Yl)-2-(3-(4-Methoxyphenyl)Ureido)-3-Phenylpropanamide], the MIC in the data set on S. aureus ATCC 29213 was determined as 3.13 µM (≈ 2.42 µg/mL); with S. pneumoniae DAW27, 0.2 µM (≈ 0.155 µg/mL); with B. subtilis ATCC 23857 it was 1.56 µM (≈ 1.21 µg/mL); in the data set on E. faecails ATCC 33186, 0.78 µM (≈ 0.604 µg/mL). The “Minimal Inhibitory Concentration E. coli K12ΔtolC” value with E. coli K12ΔtolC stood at 50 µM. The IC50 at 72 h in data set [1] (setting [2]) is greater than 100 µM.
By half-life is commonly meant how long it takes for the measured level to halve. Take `C[C@@H]1NC(=O)[C@@H]2CCCCN2C(=O)[C@@H]2CCCN2C(=O)[C@@H](NC(=O)[C@H](Cc2cc(F)cc(F)c2)NC(=O)Nc2ccc3c(c2)OCO3)[C@H](C)OC(=O)[C@@H]2CCCN2C1=O` [Compound 17, (S)-2-(3-(Benzo[D][1,3]Dioxol-5-Yl)Ureido)-3-(3,5-Difluorophenyl)-N-((6S,8aS,14aS,20S,21 S,23aS)-6,21-Dimethyl-5,8,14,19,23-Pentaoxooctadecahydro-1H,5H,14H,19H-Pyrido[2,1-I]Dipyrrolo[2,1-C:2′,1′-L][1]Oxa[4,7,10,13]Tetraazacyclohexadecin-20-Yl)Propanamide]: the MIC with S. pneumoniae R6 was 0.8 µM (≈ 0.659 µg/mL). In [1], this molecule had an IC50 at 72 h of 46.5 ± 9.8 µM. The molecule further had a half-life in the data set “in vitro” of 8.1 ± 1.1 h. In addition, in the data set with S. aureus USA 300 ΔClpP, the “Minimal Inhibitory Concentration S. aureus USA 300 ΔClpP” value came to 200 µM.
On to `Cc1ccc(NC(=O)N[C@@H](Cc2cc(F)cc(F)c2)C(=O)N[C@H]2COC(=O)[C@@H]3C[C@@H](C)CN3C(=O)[C@H](C)NC(=O)[C@@H]3CCCCN3C(=O)[C@@H]3CCCN3C2=O)cc1` [Compound 24, (S)-3-(3,5-Difluorophenyl)-N-((2R,6S,8aS,14aS,20S,23aS)-2,6-Dimethyl-5,8,14,19,23-Pentaoxooctadecahydro-1H,5H,14H,19H-Pyrido[2,1-I]Dipyrrolo[2,1-C:2′,1′-L][1]Oxa[4,7,10,13]Tetraazacyclohexadecin-20-Yl)-2-(3-(P-Tolyl)Ureido)Propanamide], for which the MIC in the data set on S. aureus ATCC 29213 stood at 0.5 µM (≈ 0.397 µg/mL); with B. subtilis ATCC 23857, 2.2 µM (≈ 1.75 µg/mL). In addition, the IC50 at 72 h in data set [1] (setting [2]) stood at 93.8 ± 4.8 µM.
Turning to `C[C@H]1C[C@H]2C(=O)O[C@@H](C)[C@H](NC(=O)[C@H](Cc3cc(F)cc(F)c3)NC(=O)Nc3ccc4c(c3)OCO4)C(=O)N3CCC[C@H]3C(=O)N3CCCC[C@H]3C(=O)N[C@@H](C)C(=O)N2C1` [Compound 20, (S)-2-(3-(Benzo[D][1,3]Dioxol-5-Yl)Ureido)-3-(3,5-Difluorophenyl)-N-((2R,6S,8aS,14aS,20S,21 S,23aS)-2,6,21-Trimethyl-5,8,14,19,23-Pentaoxooctadecahydro-1H,5H,14H,19H-Pyrido[2,1-I]Dipyrrolo[2,1-C:2′,1′-L][1]Oxa[4,7,10,13]Tetraazacyclohexadecin-20-Yl)Propanamide], the MIC in the data set with S. pneumoniae R6 was less than 0.1 µM. The same molecule had a concentration for half-maximal inhibition (IC50) at 72 h in data set [1] of 52.8 ± 4.9 µM. Besides, in “in vitro”, the half-life is 6.9 ± 1.3 h. Further, in the data set on S. aureus USA 300 ΔClpP, the “Minimal Inhibitory Concentration S. aureus USA 300 ΔClpP” value stood at 200 µM.
For `C[C@@H]1C[C@H]2C(=O)OC[C@H](NC(=O)[C@H](Cc3ccccc3)NC(=O)Nc3ccccc3Cl)C(=O)N3CCC[C@H]3C(=O)N3CCCC[C@H]3C(=O)N[C@@H](C)C(=O)N2C1` [Compound 7, (S)-2-(3-(2-Chlorophenyl)Ureido)-N-((2R,6S,8aS,14aS,20S,23aS)-2,6-Dimethyl-5,8,14,19,23-Pentaoxooctadecahydro-1H,5H,14H,19H-Pyrido[2,1-I]Dipyrrolo[2,1-C:2′,1′-L][1]Oxa[4,7,10,13]Tetraazacyclohexadecin-20-Yl)-3-Phenylpropanamide], the MIC was found to be 12.5 µM (≈ 9.73 µg/mL) in the data set on S. aureus ATCC 29213, 0.78 µM (≈ 0.607 µg/mL) in the data set with S. pneumoniae DAW27, 6.25 µM (≈ 4.86 µg/mL) with B. subtilis ATCC 23857 and 3.13 µM (≈ 2.44 µg/mL) in the data set on E. faecails ATCC 33186. The “Minimal Inhibitory Concentration E. coli K12ΔtolC” value in the data set with E. coli K12ΔtolC was 200 µM. Also, in [1] (setting [2]), the half-inhibitory concentration (IC50) at 72 h was greater than 100 µM.
On to `C[C@@H]1C[C@H]2C(=O)OC[C@H](NC(=O)[C@H](Cc3ccccc3)NC(=O)Nc3ccc4c(c3)CCN4C)C(=O)N3CCC[C@H]3C(=O)N3CCCC[C@H]3C(=O)N[C@@H](C)C(=O)N2C1` [Compound 11, (S)—N-((2R,6S,8aS,14aS,20S,23aS)-2,6-Dimethyl-5,8,14,19,23-Pentaoxooctadecahydro-1H,5H,14H,19H-Pyrido[2,1-I]Dipyrrolo[2,1-C:2′,1′-L][1]Oxa[4,7,10,13]Tetraazacyclohexadecin-20-Yl)-2-(3-(1-Methylindolin-5-Yl)Ureido)-3-Phenylpropanamide], for which the MIC with S. aureus ATCC 29213 was found to be 2.5 µM (≈ 2 µg/mL); in the data set with S. pneumoniae DAW27 it was 0.3 µM (≈ 0.24 µg/mL); in the data set on B. subtilis ATCC 23857, 1.25 µM (≈ 0.999 µg/mL); in the data set on E. faecails ATCC 33186, 0.6 µM (≈ 0.479 µg/mL). Besides, the IC50 at 72 h in data set [1] (setting [2]) is 76 ± 10.6 µM.
